Measured values from patent publication US7943770B2, “Fused quinoline derivative and use thereof” (Takeda Pharmaceutical Company Limited, priority 2004, dated 2011).

target: T1, hNK2 receptor (Homo sapiens, UniProt P21452); test: Radio-ligand ([125I]-NKA) receptor binding inhibitory activity using membrane fraction of hNK2 receptor-expressing CHO cell; conditions: membrane fraction of hNK2 receptor-expressing CHO cells, 25° C., 30 min
T1 construct: host or cells: CHO cells
T1 sequence (P21452 1-398): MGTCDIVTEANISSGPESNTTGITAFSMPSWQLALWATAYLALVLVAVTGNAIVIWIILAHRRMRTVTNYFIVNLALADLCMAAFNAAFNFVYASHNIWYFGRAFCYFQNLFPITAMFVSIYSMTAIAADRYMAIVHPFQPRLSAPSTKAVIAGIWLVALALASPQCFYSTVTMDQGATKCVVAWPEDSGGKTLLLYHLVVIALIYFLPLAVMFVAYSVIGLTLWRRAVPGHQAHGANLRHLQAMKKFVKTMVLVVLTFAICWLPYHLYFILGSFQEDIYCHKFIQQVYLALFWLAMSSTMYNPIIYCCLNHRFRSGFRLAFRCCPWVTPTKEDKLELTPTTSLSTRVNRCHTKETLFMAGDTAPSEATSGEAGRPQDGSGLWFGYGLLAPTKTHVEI
Method: hNK2 receptor-expressing CHO cells (produced by EUROSCREEN) were cultured in HAM-F12 medium containing 400 μg/ml Geneticin, 100 U/mL penicillin, 100 μg/mL streptomycin and 10% inactivated serum. The medium was removed and adhered cells were washed with PBS, and PBS containing 5 mM EDTA was added to detach the cells from the flask. The cells were recovered by centrifugation, suspended in suspending buffer A (15 mM Tris-HCl (pH 7.5), 2 mM MgCl2, 0.3 mM EDTA, 1 mM EGTA), disrupted by POLYTRON homogenizer (manufactured by KINEMATICA) and centrifuged at 800×g for 10 min. The supernatant was recovered and ultracentrifuged at 100000×g for 25 min. The precipitated fraction was suspended in suspending buffer B (7.5 mM Tris-HCl (pH 7.5), 12.5 mM MgCl2, 0.3 mM EDTA, 1 mM, […], 250 mM Sucrose) and cryopreserved (at −80° C.) as a receptor specimen.
An assay buffer (50 μl, 50 mM Tris-HCl (pH 7.4), 0.02% bovine serum albumin, 2 μg/mL chymostatin, 40 μg/mL bacitracin, 40 μg/mL APMSF, 3 mM MnCl2) was added to a 96 well microassay plate. Thereto was added a 20 μg/mL membrane specimen suspended in the assay buffer (50 μL). An assay buffer (50 μL) containing 2% dimethyl sulfoxide was added to examine the total binding, 4 unlabeled NKA (produced by Peptide Institute, Inc.) solution (50 μL) diluted with an assay buffer containing 2% dimethyl sulfoxide was added to examine non-specific binding, and a test compound diluted with an assay buffer (50 containing 2% dimethyl sulfoxide) was added to examine the binding inhibitory activity of the test compound. Furthermore, […] [^125I]-NKA (produced by Amersham Biosciences) solution (50 μL) was added to each well.
After reaction at 25° C. for 30 min., the reaction was stopped by rapid filtration on a unifilter plate (GF/C) (manufactured by PerkinElmer) using a cell harvester (manufactured by PerkinElmer) and the cells were washed 5 times with 50 mM Tris-HCl (pH 7.4) buffer containing 0.02% bovine serum albumin (250 μL). The GF/C filter plate was dried and 20 μl, of MicroScinti-O (manufactured by PerkinElmer) was added and the radioactivity was measured in Topcount (manufactured by PerkinElmer). The GF/C filter plate, which had been immersed in 0.3% polyethyleneimine for one day, was used. Specific binding is shown by the value obtained by subtracting non-specific binding from the total binding. The binding inhibitory activity of the test compound is shown by the ratio of the value obtained by subtracting the measured value associated with the addition of the test compound from the total binding, to the value of the specific binding.

| Structure (SMILES) | IC50 |
| --- | --- |
| O=C(N[C@@H]1CCCC[C@@H]1C(=O)N1CC[C@@H]2[C@H](c3ncc[nH]3)Nc3ccccc3[C@@H]21)c1cccc(C(F)(F)F)c1 [Example 305, N-((1R,2S)-2-{[(3aR,4R,9bR)-4-(1H-Imidazol-2-yl)-2,3,3a,4,5,9b-hexahydro-1H-pyrrolo[3,2-c]quinolin-1-yl]carbonyl}cyclohexyl)-3-(trifluoromethyl)benzamide] | < 1 nM |
| COc1ccc(C(=O)N[C@@H]2CCCC[C@@H]2C(=O)N2CC[C@@H]3[C@H](C4CC4)Nc4ccccc4[C@@H]32)cc1 [Example 180, N-((1R,2S)-2-{[(3aR,4S,9bR)-4-Cyclopropyl-2,3,3a,4,5,9b-hexahydro-1H-pyrrolo[3,2-c]quinolin-1-yl]carbonyl}cyclohexyl)-4-methoxybenzamide] | < 1 nM |
| CCC[C@@H]1Nc2ccccc2[C@H]2[C@@H]1CCN2C(=O)[C@H]1CCCC[C@H]1NC(=O)Nc1ccc(OC)cc1 [Example 196, N-(4-Methoxyphenyl)-N′-((1R,2S)-2-{[(3aR,4S,9bR)-4-propyl-2,3,3a,4,5,9b-hexahydro-1H-pyrrolo[3,2-c]quinolin-1-yl]carbonyl}cyclohexyl)urea] | < 1 nM |
| O=C(N[C@@H]1CCCC[C@@H]1C(=O)N1CC[C@@H]2[C@H](c3ccccc3)Nc3cc(Cl)ccc3[C@@H]21)c1ccccc1 (relative stereo) [Example 7, N-((1R,2S)-2-{[(3aR*,4R*,9bR*)-7-Chloro-4-phenyl-2,3,3a,4,5,9b-hexahydro-1H-pyrrolo[3,2-c]quinolin-1-yl]carbonyl}cyclohexyl)benzamide] | < 10 nM |
| COC[C@@H]1Nc2ccccc2[C@H]2[C@@H]1CCN2C(=O)[C@H]1CCCC[C@H]1NC(=O)c1cccc(N(C)C)c1 [Example 241, 3-(Dimethylamino)-N-((1R,2S)-2-{[(3aR,4R,9bR)-4-(methoxymethyl)-2,3,3a,4,5,9b-hexahydro-1H-pyrrolo[3,2-c]quinolin-1-yl]carbonyl}cyclohexyl)benzamide] | < 10 nM |
| COC[C@@H]1Nc2ccccc2[C@H]2[C@@H]1CCN2C(=O)[C@H]1CCCC[C@H]1NC(=O)c1ccc(C#N)cc1 [Example 216, 4-Cyano-N-((1R,2S)-2-{[(3aR,4R,9bR)-4-(methoxymethyl)-2,3,3a,4,5,9b-hexahydro-1H-pyrrolo[3,2-c]quinolin-1-yl]carbonyl}cyclohexyl)benzamide] | < 10 nM |
| COC[C@@H]1Nc2ccccc2[C@H]2[C@@H]1CCN2C(=O)[C@H]1CCCC[C@H]1NC(=O)c1ccc(N2N=C(C)CC2=O)cc1 [Example 252, N-((1R,2S)-2-{[(3aR,4R,9bR)-4-(Methoxymethyl)-2,3,3a,4,5,9b-hexahydro-1H-pyrrolo[3,2-c]quinolin-1-yl]carbonyl}cyclohexyl)-4-(3-methyl-5-oxo-4,5-dihydro-1H-pyrazol-1-yl)benzamide] | < 1 nM |
| COc1ccc(CNC(=O)N[C@@H]2CCCC[C@@H]2C(=O)N2CC[C@@H]3[C@H](c4ccccc4)Nc4ccccc4[C@@H]32)cc1 [Example 144, N-(4-Methoxybenzyl)-N′-((1R,2S)-2-{[(3aR,4R,9bR)-4-phenyl-2,3,3a,4,5,9b-hexahydro-1H-pyrrolo[3,2-c]quinolin-1-yl]carbonyl}cyclohexyl)urea] | < 10 nM |
| COC(=O)c1ccc(C(=O)N[C@@H]2CCCC[C@@H]2C(=O)N2CC[C@@H]3[C@H](c4ccccc4)Nc4ccccc4[C@@H]32)cc1 [Example 100, Methyl 4-{[((1R,2S)-2-{[(3aR,4R,9bR)-4-phenyl-2,3,3a,4,5,9b-hexahydro-1H-pyrrolo[3,2-c]quinolin-1-yl]carbonyl}cyclohexyl)amino]carbonyl}benzoate] | < 10 nM |
| O=C(N[C@@H]1CCCC[C@@H]1C(=O)N1CC[C@@H]2[C@H](c3ncc[nH]3)Nc3ccccc3[C@@H]21)c1ccc(F)c(Cl)c1 [Example 301, 3-Chloro-4-fluoro-N-((1R,2S)-2-{[(3aR,4R,9bR)-4-(1H-imidazol-2-yl)-2,3,3a,4,5,9b-hexahydro-1H-pyrrolo[3,2-c]quinolin-1-yl]carbonyl}cyclohexyl)benzamide] | < 1 nM |
| COC[C@@H]1Nc2ccccc2[C@H]2[C@@H]1CCN2C(=O)[C@H]1CCCC[C@H]1NC(=O)c1ccc(N(C)CCO)cc1 [Example 270, 4-[(2-Hydroxyethyl) (methyl)amino]-N-((1R,2S)-2-{[(3aR,4R,9bR)-4-(methoxymethyl)-2,3,3a,4,5,9b-hexahydro-1H-pyrrolo[3,2-c]quinolin-1-yl]carbonyl}cyclohexyl)benzamide] | < 10 nM |
| COC[C@@H]1Nc2ccccc2[C@H]2[C@@H]1CCN2C(=O)[C@H]1CCCC[C@H]1NC(=O)c1ccc(C(F)(F)F)cc1 [Example 210, N-((1R,2S)-2-{[(3aR,4R,9bR)-4-(Methoxymethyl)-2,3,3a,4,5,9b-hexahydro-1H-pyrrolo[3,2-c]quinolin-1-yl]carbonyl}cyclohexyl)-4-(trifluoromethyl)benzamide] | < 1 nM |
| O=C(NCCCO)N[C@@H]1CCCC[C@@H]1C(=O)N1CC[C@@H]2[C@H](c3ccccc3)Nc3ccccc3[C@@H]21 [Example 156, N-(3-Hydroxypropyl)-N′-((1R,2S)-2-{[(3aR,4R,9bR)-4-phenyl-2,3,3a,4,5,9b-hexahydro-1H-pyrrolo[3,2-c]quinolin-1-yl]carbonyl}cyclohexyl)urea] | < 10 nM |
| O=C(N[C@@H]1CCCC[C@@H]1C(=O)N1CC[C@H]2[C@@H](c3ccsc3)Nc3ccccc3[C@H]21)c1ccccc1 (relative stereo) [Example 18, N-((1R,2S)-2-{[(3aS*,4S*,9bS*)-4-(3-Thienyl)-2,3,3a,4,5,9b-hexahydro-1H-pyrrolo[3,2-c]quinolin-1-yl]carbonyl}cyclohexyl)benzamide] | < 1 nM |
| CCOCCNC(=O)N[C@@H]1CCCC[C@@H]1C(=O)N1CC[C@@H]2[C@H](c3ccccc3)Nc3ccccc3[C@@H]21 [Example 162, N-(2-Ethoxyethyl)-N′-((1R,2S)-2-{[(3aR,4R,9bR)-4-phenyl-2,3,3a,4,5,9b-hexahydro-1H-pyrrolo[3,2-c]quinolin-1-yl]carbonyl}cyclohexyl)urea] | < 10 nM |
| COC[C@@H]1Nc2ccccc2[C@H]2[C@@H]1CCN2C(=O)[C@H]1CCCC[C@H]1NC(=O)c1ccc(S(N)(=O)=O)cc1 [Example 245, 4-(Aminosulfonyl)-N-((1R,2S)-2-{[(3aR,4R,9bR)-4-(methoxymethyl)-2,3,3a,4,5,9b-hexahydro-1H-pyrrolo[3,2-c]quinolin-1-yl]carbonyl}cyclohexyl)benzamide] | < 10 nM |
| COC[C@@H]1Nc2ccccc2[C@H]2[C@@H]1CCN2C(=O)[C@H]1CCCC[C@H]1NC(=O)c1ccc2nccnc2c1 [Example 246, N-((1R,2S)-2-{[(3aR,4R,9bR)-4-(Methoxymethyl)-2,3,3a,4,5,9b-hexahydro-1H-pyrrolo[3,2-c]quinolin-1-yl]carbonyl}cyclohexyl)quinoxaline-6-carboxamide] | < 10 nM |
| C[C@]12CCN(C(=O)[C@H]3CCCC[C@H]3NC(=O)c3ccccc3)[C@H]1c1ccccc1N[C@H]2c1ccccc1 [Example 83, N-((1R,2S)-2-{[(3aR,4S,9bR)-3a-Methyl-4-phenyl-2,3,3a,4,5,9b-hexahydro-1H-pyrrolo[3,2-c]quinolin-1-yl]carbonyl}cyclohexyl)benzamide] | < 10 nM |
| COC[C@@H]1Nc2ccccc2[C@H]2[C@@H]1CCN2C(=O)[C@H]1CCCC[C@H]1NC(=O)Nc1ccc(-n2cccn2)cc1 [Example 284, N-((1R,2S)-2-{[(3aR,4R,9bR)-4-(methoxymethyl)-2,3,3a,4,5,9b-hexahydro-1H-pyrrolo[3,2-c]quinolin-1-yl]carbonyl}cyclohexyl)-N′-[4-(1H-pyrazol-1-yl)phenyl]urea] | < 1 nM |
